Patent publication US20250270159A1, “1-(CYCLOBUTANEMETHYLIDENE)-2, 4, 5-TRIMETHOXYBENZENE COMPOUND AND PREPARATION METHOD AND USE THEREOF” (CHENGDU XINRUI TAIKANG TECHNOLOGY CO., LTD., priority 2023, published 2025)

How the values were obtained:
[1] = system: ischemic stroke induced by the filament technique in rats; experiment: Long-term ischemic stroke (MCAO), neurological deficit score (mNSS); type: in vivo
Experimental: (§1) The rats were randomly divided into a sham operation group (Sham group, given a blank emulsion with a volume equal to that of the high-dose CTMB group), a model group (Vehicle group, given a blank emulsion with a volume equal to that of the high-dose CTMB group), a low-dose CTMB group (CTMB-L group, 10 mg/kg), a high-dose CTMB group (CTMB-H group, 20 mg/kg), and an edaravone dexborneol injection concentrated solution group (EDB group, commercially available, 3 mg/kg). 10 rats were included in each group, which were administered by intraperitoneal injection. It should be noted that in the experiment, the mode of administration for rats was intraperitoneal injection, and a ratio of the effective dose of CTMB, the active ingredient in the emulsion injection, to the unit mass of the human body was within a range of 0.2 mg-4.0 mg/kg, which referred to the ratio of the effective dose of CTMB, the active ingredient in the emulsion injection, to the unit mass of the human body during intravenous infusion, which was extrapolated from the effective dose of the rats. Considering the different bioavailability, peak concentration, and peak time of the drug due to different species and different modes of administration, the effective dose of the active ingredient CTMB in the emulsion injection to the unit mass of human body was finally determined to be 0.2 mg-4.0 mg/kg through conversion.
(§2) The rats were fasted for 12 h before procedure, and the rats were anesthetized with 10% chloral hydrate (350 mg/kg, i.p.). The rats were fixed in the supine position, and the body temperature was maintained at about 37° C. For neck preparation, a median neck incision was made, the muscle and fascia were separated along the inner edge of the sternocleidomastoid muscle to expose the right side, the common carotid artery (CCA), external carotid artery (ECA), and internal carotid artery (ICA) were separated bluntly, and the lines were disposed of proximally in the CCA proximal end, ICA, and ECA for backup. The CCA proximal end and ECA were ligatured, and an arterial clip was used to temporarily close the ICA, then a small hole was poked at a position of CCA having about 4 mm from the bifurcation with a needle. The filament was inserted into the ICA through the CCA, the arterial clipped on ICA was loosened, and the filament was slowly advanced. When the mark on the filament reached the bifurcation and a slight resistance was felt, the thin wire at ICA was tightened, and saline was used to clean the wound and then suture was performed. The sham procedure was the same as the experimental group except that no filament was inserted. After anesthesia, the rats were raised normally.
Experimental materials, groups (n=10-15), modeling manner, and scoring criteria were the same as the acute phase of treatment. After 2 h of modeling by the filament technique, the drugs were immediately administered according to the grouped administration plan, and thereafter the drugs continued to be administered once a day for 14 days, and modified mNSS score was performed on days 1, 4, 7, and 14.

[2] = system: ischemic stroke induced by the filament technique in rats; experiment: Long-term ischemic stroke (MCAO), bonding (adhesive tape) test; type: in vivo; conditions: for Time for rats to perceive tape, Day 1 / Time for rats to perceive tape, Day 4 / Time for rats to perceive tape, Day 7 / Time for rats to perceive tape, Day 10 / Time for rats to perceive tape, Day 14 / Time of removing tape, Day 1 / Time of removing tape, Day 4 / Time of removing tape, Day 7 / Time of removing tape, Day 10 / Time of removing tape, Day 14: cut-off 60 s
Experimental: as §1, §2
Rats were trained in adhesion experiments for one week before modeling, and those that could successfully tear off the tape within 10 s were screened for modeling. After 2 h of modeling by the filament technique, the rats were immediately administered with the drug according to the grouped administration plan. Thereafter, the rats were continued to be administered with the drug once a day for 14 days, and adhesion experiments were performed on days 1, 4, 7, 10, and 14 to assess sensory and motor nerve function. The specific operation was as follows. A circular tape with a diameter of about 12 mm was adhered to the plantar surface of the left forelimb of the rat, and the sensation and removal time of the tape was recorded. If the mice were unable to perceive and/or remove the tape within 60 s, 60 s were recorded.

[3] = CTMB-H 20 mg/kg ip once a day for 14 days
[4] = CTMB-L 10 mg/kg ip once a day for 14 days

**Q.** For COc1cc(OC)c(OC)cc1C=C1CCC1 [CTMB, 1-(cyclobutylidenemethyl)-2,4,5-trimethoxybenzene], which “toxic side effects associated with administration” value ([1]; 10 and 20 mg/kg ip once a day for 14 days) is on record?
**A.** No toxic side effects

**Q.** And the “mNSS score, Day 1” value [1, 3]?
**A.** 5.69 ± 2.13^##, **

**Q.** And the “mNSS score, Day 4” value [1, 3]?
**A.** 3.75 ± 1.67^##, **

**Q.** What about the “mNSS score, Day 7” value [1, 3] of the same molecule?
**A.** 2.83 ± 1.17^##, *

**Q.** What about the “mNSS score, Day 14” value [1, 3] of the same molecule?
**A.** 2.45 ± 1.36^##, *

**Q.** And the “mNSS score, Day 1” value [1, 4]?
**A.** 6.45 ± 2.37^##, *

**Q.** And the “mNSS score, Day 4” value [1, 4]?
**A.** 3.65 ± 1.29^##, **

**Q.** What about the “mNSS score, Day 7” value [1, 4] of the same molecule?
**A.** 3.38 ± 0.83

**Q.** And the “mNSS score, Day 14” value [1, 4]?
**A.** 2.94 ± 1.56

**Q.** What about the “toxic side effects associated with administration” value ([2]; 10 and 20 mg/kg ip once a day for 14 days, bonding test) of the same molecule?
**A.** No toxic side effects

**Q.** What about the “Time for rats to perceive tape, Day 1” value ([2]; CTMB-H 20 mg/kg ip once a day) of the same molecule?
**A.** 31.17 ± 24.57^#^ s

**Q.** And the “Time for rats to perceive tape, Day 4” value ([2]; CTMB-H 20 mg/kg ip once a day)?
**A.** 25.33 ± 23.41^#^ s

**Q.** What about the “Time for rats to perceive tape, Day 7” value ([2]; CTMB-H 20 mg/kg ip once a day) of the same molecule?
**A.** 20.50 ± 22.99^#^ s

**Q.** What about the “Time for rats to perceive tape, Day 10” value ([2]; CTMB-H 20 mg/kg ip once a day) of the same molecule?
**A.** 7.00 ± 4.56 s

**Q.** And the “Time for rats to perceive tape, Day 14” value ([2]; CTMB-H 20 mg/kg ip once a day)?
**A.** 8.44 ± 11.94 s

**Q.** What about the “Time of removing tape, Day 1” value ([2]; CTMB-H 20 mg/kg ip once a day) of the same molecule?
**A.** 53.67 ± 16.66 s

**Q.** And the “Time of removing tape, Day 4” value ([2]; CTMB-H 20 mg/kg ip once a day)?
**A.** 51.33 ± 17.14 s

**Q.** What about the “Time of removing tape, Day 7” value ([2]; CTMB-H 20 mg/kg ip once a day) of the same molecule?
**A.** 48.67 ± 16.55 s

**Q.** What about the “Time of removing tape, Day 10” value ([2]; CTMB-H 20 mg/kg ip once a day) of the same molecule?
**A.** 31.11 ± 19.76 s

**Q.** What about the “Time of removing tape, Day 14” value ([2]; CTMB-H 20 mg/kg ip once a day) of the same molecule?
**A.** 33.22 ± 23.03 s

**Q.** And the “Time for rats to perceive tape, Day 1” value ([2]; CTMB-L 10 mg/kg ip once a day)?
**A.** 42.25 ± 25.53 s

**Q.** And the “Time for rats to perceive tape, Day 4” value ([2]; CTMB-L 10 mg/kg ip once a day)?
**A.** 27.50 ± 28.05 s

**Q.** And the “Time for rats to perceive tape, Day 7” value ([2]; CTMB-L 10 mg/kg ip once a day)?
**A.** 28.20 ± 28.97^#^ s

**Q.** What about the “Time for rats to perceive tape, Day 10” value ([2]; CTMB-L 10 mg/kg ip once a day) of the same molecule?
**A.** 27.11 ± 30.06 s

**Q.** And the “Time for rats to perceive tape, Day 14” value ([2]; CTMB-L 10 mg/kg ip once a day)?
**A.** 10.44 ± 12.44 s

**Q.** And the “Time of removing tape, Day 1” value ([2]; CTMB-L 10 mg/kg ip once a day)?
**A.** 50.75 ± 17.65 s

**Q.** What about the “Time of removing tape, Day 4” value ([2]; CTMB-L 10 mg/kg ip once a day) of the same molecule?
**A.** 36.20 ± 24.17 s

**Q.** What about the “Time of removing tape, Day 7” value ([2]; CTMB-L 10 mg/kg ip once a day) of the same molecule?
**A.** 38.60 ± 26.15^#, * s

**Q.** What about the “Time of removing tape, Day 10” value ([2]; CTMB-L 10 mg/kg ip once a day) of the same molecule?
**A.** 26.63 ± 27.80 s

**Q.** And the “Time of removing tape, Day 14” value ([2]; CTMB-L 10 mg/kg ip once a day)?
**A.** 26.22 ± 21.48 s
